Structures can show the parent of a compound that is named as a salt.
What was measured:
CDK2/cyclin E1 = target: T1, CDK2/cyclin E1 (Homo sapiens, UniProt P24941); experiment: In vitro CDK2/cyclinE enzyme activity assay (TR-FRET); type: biochemical; details: CDK2/cyclin E1, 1 mM ATP, 120 min at 25 °C
T1 construct: purchased SignalChem
Procedure: CDK2/cyclin E1 was purchased from SignalChem. Ulight-4E-BP1 peptide, Eu-anti-phospho-tyrosine antibody, and 1X detection buffer solution were purchased from PerkinElmer. High-purity adenosine triphosphate (ATP) was purchased from Promega. Ethylenediaminetetraacetic acid (EDTA) was purchased from Sigma. Nivo multimode plate reader (PerkinElmer) was used.
Preparation of Kinase Buffer Solution: The kinase buffer solution consisted 50 mM HEPES, 1 mM EDTA, 10 mM MgCl2, and 0.01% Brij-35, with pH of 7.4. 2.38 g HEPES, 58 mg EDTA, 406 mg MgCl2, and 20 mg Brij-35 were added to 200 mL buffer, and the pH was adjusted to 7.4.
The stop solution was prepared by mixing 100 µL of 1 M EDTA stock solution with […] of 1X detection buffer solution and 1725 µL of distilled water.
The enzyme, Ulight-4E-BP1 peptide, ATP, and the inhibitor were diluted using the kinase buffer solution. The Eu-anti-phospho-tyrosine antibody was diluted to a concentration of 8 nM/L using the detection buffer solution. The test compound was serially diluted 5-fold using a multichannel pipette to the 8th concentration, i.e., from 4 µM to 0.0512 nM. The final concentration of DMSO was 4%, and the experiment was set up with duplicate wells. 2.5 µL of each gradient concentration of the inhibitor, 5 µL of CDK2/cyclin E1 enzyme (10 ng), and 2.5 µL of a mixture of substrate and ATP (4 mM ATP, 100 nM Ulight-4E-BP1 peptide) were added to a microplate, resulting in a final concentration gradient of the compound from 1 µM to 0.0128 nM, with final ATP and substrate concentrations of 1 mM and 25 nM, respectively. The reaction system was incubated at 25 °C for 120 minutes. After the reaction, 5 µL of the stop solution was added to each well, and further reacted at 25 °C for 5 minutes to terminate the reaction. Then 5 µL of Eu-anti-phospho-tyrosine antibody dilution was added to each well, and the mixture was reacted at 25 °C for 60 minutes. Data were collected using the PerkinElmer Nivo multimode plate reader in TR-FRET mode (excitation wavelength: 320 nm; emission wavelengths: 615 nm and 665 nm).
The raw data were converted to inhibition rates according to the equation (Sample-Min)/(Max-Min)×100%. The IC50 value was obtained by fitting the data to a four-parameter curve (using log(inhibitor) vs. response -- Variable slope model in GraphPad Prism).

[1] = Pharmacokinetic study, oral and intravenous administration in mice; set-up: species or system ICR mice; details: male, ICR, mouse, in vivo
Procedure: This study used ICR male mice as test animals. The plasma concentrations of the test compounds and the reference compound in mice were quantitatively determined at different time points using the LC-MS/MS method following intravenous injection or oral administration to evaluate the pharmacokinetic characteristics of the test compounds in mice.
ICR mice (male, 20-30 g, 6-8 weeks old, Beijing Charles River).
A clear solution of the test compound was administered to ICR mice (fasted overnight or fed) via tail vein injection or oral gavage. For intravenous injection, blood samples (50 µL) were collected via cheek puncture at 0 h (pre-dose) and at 0.083, 0.25, 0.5, 1, 2, 4, 6, 8, and 24 h post-dose into anticoagulant tubes containing sodium heparin. The mixtures were thoroughly vortexed at 4 °C and centrifuged at 6000 rpm for 3 minutes. For oral gavage, blood samples were collected via cheek puncture at 0 h (pre-dose) and at 0.083, 0.25, 1, 2, 4, 6, 8, and 24 h post-dose into anticoagulant tubes containing sodium heparin. The mixtures were vortexed thoroughly, and centrifuged at 6000 rpm for 3 minutes. Plasma drug concentrations were determined using the LC-MS/MS method. Pharmacokinetic parameters were calculated using Phoenix WinNonlin 8.2.0 pharmacokinetic software with a non-compartmental model and linear-logarithmic trapezoidal rule.

[2] = tested on: Human Ovarian Cancer OVCAR-3 Cell Subcutaneous Xenograft Tumor; experiment: In vivo pharmacodynamic (efficacy) study in OVCAR-3 subcutaneous xenograft tumor model; details: oral, BID*21 days, OVCAR-3 xenograft in CB17-SCID mice
Procedure: Cell Culture: OVCAR-3 cells (human ovarian cancer cell line, sourced from Medsyin's cell bank) were cultured in RPMI-1640 medium (ATCC modified, Gibco) supplemented with 20% FBS (Gibco) and 1% penicillin/streptomycin (P.S.), in vitro at 37 °C with 5% CO2. The cells were passaged twice weekly. OVCAR-3 cells in the exponential growth phase were collected and resuspended in a mixture of PBS and Matrigel (Corning) to prepare a cell suspension with a concentration of 5×10^7 cells/mL for mouse inoculation. The volume ratio of PBS to Matrigel was 1:1.
Animals: CB17-SCID mice, female, 6-8 weeks old, weighing 18-21 grams. A total of 40 mice were inoculated. The mice were provided by Shanghai Lingchang Biotechnology Co., Ltd.
Tumor Inoculation: Each mouse was subcutaneously injected in the right flank with 0.2 mL of OVCAR-3 tumor cells (10×10^6 cells).
Experimental Metrics: The experimental metrics aimed to evaluate whether tumor growth was inhibited, delayed, or cured. The tumor diameter was measured twice weekly using a vernier caliper. The tumor volume was calculated using the formula: V=0.5a×b^2, where a and b represent the longest and shortest diameters of the tumor, respectively.
Antitumor metric TGI (%) reflects the tumor growth inhibition rate. TGI (%) was calculated as follows: TGI (%) = [(1 - (average tumor volume at the end of drug administration in a given group - average tumor volume at the start of drug administration in that group)) / (average tumor volume at the end of treatment in a vehicle control group - average tumor volume at the start of treatment in the vehicle control group)] × 100%.

Row | SMILES | IC50 (CDK2/cyclin E1) | bioavailability [1] | AUC(0-t) ([1]; iv, 5 mg/kg) | Vd ([1]; iv, 5 mg/kg) | clearance ([1]; iv, 5 mg/kg) | half-life ([1]; iv, 5 mg/kg) | AUC(0-t) ([1]; po, 30 mg/kg) | Cmax ([1]; po, 30 mg/kg) | Tmax ([1]; po, 30 mg/kg) | TGI ([2]; 35 mg/Kg) | TGI ([2]; 70 mg/Kg) | TGI ([2]; 140 mg/Kg)
1 | CONCc1nn2ccnc(Nc3cc([C@H]4CC[C@@H](OC(=O)NC(C)C)C4)[nH]n3)c2c1F [Compound 5] | 6.8 nM | 129% | 6770 ng·h/mL | 7.58 L/kg | 13 mL/min/kg | 6.48 h | 52600 ng·h/mL | 22100 ng/mL | 0.19 h |  |  | 
2 | CON(C)Cc1nn2ccnc(Nc3cc([C@H]4CC[C@@H](OC(=O)NC(C)C)C4)[nH]n3)c2c1F [Compound 6] | 7.4 nM | 196% | 13200 ng·h/mL | 0.52 L/kg | 6.35 mL/min/kg | 0.93 h | 155000 ng·h/mL | 41100 ng/mL | 1.08 h |  |  | 
3 | CON(C)Cc1nn2ccnc(Nc3cc([C@H]4CC[C@@H](OC(=O)NC(C)C)C4)[nH]n3)c2c1C [Formate salt of compound 2] | 4.1 nM |  |  |  |  |  |  |  |  | 104.1% | 114.1% | 114.6%

Reference: patent EP4653431A1, “PYRAZOLE DERIVATIVE, AND PHARMACEUTICALLY ACCEPTABLE SALT, STEREOISOMER, PHARMACEUTICAL COMPOSITION AND USE THEREOF” (Starg (Wuhan) Pharmaceutical Technology Co., Ltd, priority 2023, dated 2024)
